Test results published in US20240408112A1, “METHOD FOR PREVENTING OR TREATING PULMONARY ARTERIAL HYPERTENSION BY USING 7-DEHYDROCHOLESTEROLS OR SALTS, OXIDES, METABOLITES, OR DERIVATIVES THEREOF” (EXCELSIOR PHARMATECH LABS., priority 2023, published 2024).

Tested on: human pulmonary artery smooth muscle cells (hPASMC)
Test: BrdU cell proliferation assay, 0.1% FBS, 100 pM TGF-β, hPASMC
Assay type: cell-based
Settings: hPASMC, 100 pM TGF-β, 0.1% FBS
Method: BrdU (5-bromo-2-deoxyuridine) cell proliferation assay (BrdU assay)
A 48-well plate was used, and 1.5×10^4 cells were implanted in each well. After 24 hours, the medium was changed to serum-free culture medium and synchronized for 24 hours. A 2-fold concentration of the compound in serum-free culture medium is prepared and the cells were pretreated for 1 hour. Then, the same volume of culture medium containing 20% fetal bovine serum (FBS) was added to dilute the compound. The final concentration was 10% FBS culture medium and 1 times the concentration of the compound. In the experimental group that added TGF-β, the same volume of TGF-β culture medium containing 10 ng/mL was added, with a final concentration of 5 ng/mL TGF-β and 1 times the concentration of the compound, and in the experimental group added with TGF-β, the entire process was conducted in culture medium containing 0.1% serum. Then, BrdU reagent was added about 6 hours later, and the cells were collected the next day for enzyme-linked immunosorbent assay (ELISA) analysis, the compound treatment time was about 24 hours, and the BrdU treatment time was about 18 hours.
Five compounds to be tested were screened by cell survival assay (MTT assay) and BrdU (5-bromo-2-deoxyuridine) cell proliferation assay, and the information of these compounds was listed in Table 1 below. Tables 2 and 3 respectively listed the growth inhibitions of on human pulmonary artery endothelial cells (hPAEC), human pulmonary artery smooth muscle cells (hPASMC), normal rat pulmonary artery smooth muscle cells (rPASMC, as the control group, represented by “CON”), and rat pulmonary artery smooth muscle cells (represented by “MCT”), by the five compounds to be tested under the conditions of 10% FBS, 0.1% FBS and 100 pM TGF-β.

CC(C)CCCC(C)C1CCC2C3=CC=C4CC(O)CCC4(C)C3CCC21C (centres unmarked) [Code 039, 7-DHC]
EC50 (Homo sapiens, read-out: EC50): 24 µM | Inhibition of cell growth (in words) (25 μM, FIG. 3): inhibition of cell growth
